Laboratory results: article PMC7717570, “Deciphering the enzymatic target of a new family of antischistosomal agents bearing a quinazoline scaffold using complementary computational tools” (Journal of Enzyme Inhibition and Medicinal Chemistry, 2020)
Like-named read-outs stand apart in the source and are kept apart here.

Tests used:
[1] = Microsomal stability, mouse liver microsomes (S9), Phase-II (UGT enzymes); type: in vitro ADME; details: 5 µM
Experimental: (§1) Mouse or human liver microsomes (S9), reduced nicotinamide adenine dinucleotide phosphate (NADPH) generating system solutions and uridine glucuronosyltransferase (UGT) reaction mix (BD Biosciences) were kept at −80 °C. The test compounds and reference compound diclofenac were formulated in DMSO at […]. The assay was carried out based on the BD Biosciences Guidelines for Use (TF000017 Rev1.0) with minor adaptations. The metabolic stability of the compounds was studied through the CYP450 superfamily (Phase-I metabolism) by fortification with NADPH and through UGT enzymes (Phase-II metabolism) by fortification with uridine diphosphate glucuronic acid (UDPGA). For CYP450 and other NADPH dependent enzymes, the compounds were incubated at 5 µM together with 0.5 mg/mL S9 in potassium phosphate buffer in a reaction started by the addition of 1 mM NADP. At defined time points, 20 µL was withdrawn from the reaction mixture and 80 µL cold acetonitrile (ACN) was added to inactivate the enzymes and precipitate the protein. The mixture was vortexed for 30 s and centrifuged at 4 °C for 5 min to collect the supernatant. For UGT enzymes, the compounds were incubated at 5 µM together with 0.5 mg/mL S9 in a reaction started by the addition of 2 mM UDPGA cofactor. The loss of parent compound was determined using liquid chromatography (UPLC) (Waters Aquity^TM) coupled with tandem quadrupole mass spectrometry (MS^2) (Waters Xevo^TM), equipped with an electrospray ionisation (ESI) interface and operated in multiple reaction monitoring (MRM) mode.

[2] = Microsomal stability, mouse liver microsomes (S9), Phase-I (CYP450-NADPH); type: in vitro ADME; details: 5 µM
Experimental: as §1

[3] = Microsomal stability, human liver microsomes (S9), Phase-I (CYP450-NADPH); type: in vitro ADME; details: 5 µM
Experimental: as §1

[4] = test system: Schistosoma mansoni worm couples; experiment: S. mansoni ovipositing capacity and coupling; details: for inhibition at 5 µM / inhibition at 10 µM / inhibition at 25 µM / inhibition at 50 µM / inhibition at 100 µM: Schistosoma mansoni, 120 h, read-out: Reduction in number of eggs (%)
Experimental: Stock solutions of 5 mM PZQ and the quinazoline derivatives 2–13 were prepared in DMSO. Concentrations of 100 µM, 50 µM, 25 µM, 10 µM and 5 µM were freshly prepared on the day of experiment in RPMI-1640 medium. All compounds were initially tested at 100 and 50 µM; those showing worm killing were further tested at 25, 10 and 5 µM. 12-well tissue culture plates were used, each well containing 6–8 worms with at least one worm couple. Worms were incubated overnight in a CO2 incubator at 37 °C. Each concentration was tested in duplicate wells. On day 4, eggs were counted and discarded and the medium was changed. On day 5 (end of observation period) newly deposited eggs were counted. The final egg number is the total count of days 4 and 5 for each concentration tested and the final recording of the percentage of egg reduction was determined as [the total number of eggs on days 4 and 5 of control – the total number of eggs on days 4 and 5 of treated]/the total number of eggs on days 4 and 5 of control × 100.

[5] = Microsomal stability, human liver microsomes (S9), Phase-II (UGT enzymes); type: in vitro ADME; details: 5 µM
Experimental: as §1

[6] = test system: Schistosoma mansoni mature worms; experiment: In vitro S. mansoni worm killing; design: key to Worm killing (male worms) / Worm killing (female worms): % worm mortality = dead worms / total worms × 100; details: for killing at 5 µM / killing at 10 µM / killing at 25 µM / killing at 50 µM / killing at 100 µM / EC50: Schistosoma mansoni; for killing at 5 µM / killing at 10 µM / killing at 25 µM / killing at 50 µM / killing at 100 µM: 120 h, read-out: Worm killing (% of total); for Worm killing (female worms) / Worm killing (male worms): day 5
Experimental: The percentage reduction of worm or egg burden in each treated group was calculated. […] Results are expressed as mean ± SEM. A two-tailed, unpaired Student’s t-test was used to detect the significance of difference between the means of different groups. […] Stock solutions of 5 mM PZQ and the quinazoline derivatives 2–13 were prepared in DMSO. Concentrations of 100 µM, 50 µM, 25 µM, 10 µM and 5 µM were freshly prepared on the day of experiment in RPMI-1640 medium. All compounds were initially tested at 100 and 50 µM; those showing worm killing were further tested at 25, 10 and 5 µM. Worms were obtained from SBSC of TBRI. Six to eight worms were placed in 12-well tissue culture plates and fresh RPMI-1640 medium (supplemented with glutamine, 20% newborn calf serum and streptomycin, penicillin, and gentamicin), containing the indicated concentration of the test compound was added[20]^,[21]. Worms were incubated overnight in a CO2 incubator at 37 °C. On the 2nd day, worms were examined by microscopy, washed three times with normal saline, fresh medium was added and the incubation was continued. On the 3rd day, worm motility was observed and on the 4th day, medium was changed again. On day 5 (end of the observation period), worms were microscopically examined for their motility and appearance. Each concentration was tested in duplicate, and the final recording of percent worm mortality was determined as the number of dead worms [contracted and opaque] divided by the total number of worms × 100. Negative controls used medium without additions or medium with 2% DMSO; positive control media containing identical concentrations of PZQ were tested in parallel.

[7] = 10 µM, dose-titration (Table 3)
[8] = 25 µM, dose-titration (Table 3)
[9] = 50 µM, dose-titration (Table 3)
[10] = 100 µM, dose-titration (Table 3)
[11] = 5 µM, day 5, mature (6 weeks old) worms, dose-titration (Table 3)
[12] = 10 µM, day 5, mature (6 weeks old) worms, dose-titration (Table 3)
[13] = 25 µM, day 5, mature (6 weeks old) worms, dose-titration (Table 3)
[14] = 50 µM, day 5, initial test (Table 2)
[15] = 50 µM, day 5, mature (6 weeks old) worms, dose-titration (Table 3)
[16] = 100 µM, day 5, initial test (Table 2)
[17] = 100 µM, day 5, mature (6 weeks old) worms, dose-titration (Table 3)
[18] = males and females together, read-out: EC50 (worm killing)
[19] = read-out: EC50 (worm killing, female worms)
[20] = read-out: EC50 (worm killing, male worms)

COc1cc2c(=O)n(Cc3ccc(F)cc3)c(=O)n(Cc3ccc(C(F)(F)F)cc3)c2cc1OC [compound 10, 3-(4-Fluorobenzyl)-1-(4-(trifluoromethyl)benzyl)-6,7-dimethoxyquinazolin-2,4(1H,3H)-dione]
% Parent compound remaining upon incubation ([1]; 0 h): 100% | % Parent compound remaining upon incubation ([1]; 0.25 h): 89% | % Parent compound remaining upon incubation ([1]; 0.5 h): 83% | % Parent compound remaining upon incubation ([1]; 1 h): 91% | % Parent compound remaining upon incubation ([2]; 0 h): 100% | % Parent compound remaining upon incubation ([2]; 0.25 h): 85% | % Parent compound remaining upon incubation ([2]; 0.5 h): 39% | % Parent compound remaining upon incubation ([2]; 1 h): 32% | % Parent compound remaining upon incubation ([3]; 0 h): 100% | % Parent compound remaining upon incubation ([3]; 0.25 h): 108% | % Parent compound remaining upon incubation ([3]; 0.5 h): 83% | % Parent compound remaining upon incubation ([3]; 1 h): 65% | Uncoupling ([4]; 5 µM, dose-titration (Table 3)): No | Uncoupling [4, 7]: No | Uncoupling [4, 8]: Yes | Uncoupling [4, 9]: Yes | Uncoupling ([4]; 50 µM, initial test (Table 2)): Yes | Uncoupling [4, 10]: Yes | Uncoupling ([4]; 100 µM, initial test (Table 2)): Yes | inhibition at 5 µM ([4]; 5 µM, dose-titration (Table 3)): 77% | inhibition at 10 µM [4, 7]: 80% | inhibition at 25 µM [4, 8]: 100% | inhibition at 50 µM ([4]; 50 µM, initial test (Table 2)): 100% | inhibition at 100 µM ([4]; 100 µM, initial test (Table 2)): 100% | % Parent compound remaining upon incubation ([5]; 0 h): 100% | % Parent compound remaining upon incubation ([5]; 0.25 h): 102% | % Parent compound remaining upon incubation ([5]; 0.5 h): 106% | % Parent compound remaining upon incubation ([5]; 1 h): 98% | killing at 5 µM [6, 11]: 0% | killing at 10 µM [6, 12]: 8% | killing at 25 µM [6, 13]: 50% | killing at 50 µM [6, 14]: 93% | killing at 50 µM [6, 15]: 100% | killing at 100 µM [6, 16]: 100% | killing at 100 µM [6, 17]: 100% | EC50 [6, 18]: 25 µM | EC50 [6, 19]: 26 µM | EC50 [6, 20]: 20 µM | Worm killing (female worms) ([6]; 5 µM): 0 | Worm killing (female worms) ([6]; 10 µM): 0 | Worm killing (female worms) ([6]; 25 µM): 33 | Worm killing (female worms) ([6]; 50 µM): 100 | Worm killing (female worms) ([6]; 100 µM): 100 | Worm killing (male worms) ([6]; 5 µM): 0 | Worm killing (male worms) ([6]; 10 µM): 14 | Worm killing (male worms) ([6]; 25 µM): 63 | Worm killing (male worms) ([6]; 50 µM): 100 | Worm killing (male worms) ([6]; 100 µM): 100

COc1ccc(Cn2c(=O)c3cc(Cl)ccc3n(Cc3ccc(C(F)(F)F)cc3)c2=O)cc1 [compound 9, 6-Chloro-1-(4-(trifluoromethyl)benzyl)-3-(4-methoxybenzyl)quinazolin-2,4(1H,3H)-dione]
% Parent compound remaining upon incubation ([1]; 0 h): 100% | % Parent compound remaining upon incubation ([1]; 0.25 h): 101% | % Parent compound remaining upon incubation ([1]; 0.5 h): 103% | % Parent compound remaining upon incubation ([1]; 1 h): 105% | % Parent compound remaining upon incubation ([2]; 0 h): 100% | % Parent compound remaining upon incubation ([2]; 0.25 h): 91% | % Parent compound remaining upon incubation ([2]; 0.5 h): 51% | % Parent compound remaining upon incubation ([2]; 1 h): 44% | % Parent compound remaining upon incubation ([3]; 0 h): 100% | % Parent compound remaining upon incubation ([3]; 0.25 h): 104% | % Parent compound remaining upon incubation ([3]; 0.5 h): 61% | % Parent compound remaining upon incubation ([3]; 1 h): 67% | Uncoupling ([4]; 5 µM, dose-titration (Table 3)): No | Uncoupling [4, 7]: No | Uncoupling [4, 8]: Yes | Reduction in number of eggs (%) [4, 9]: 100% | Uncoupling [4, 9]: Yes | Uncoupling ([4]; 50 µM, initial test (Table 2)): Yes | Reduction in number of eggs (%) [4, 10]: 100% | Uncoupling [4, 10]: Yes | Uncoupling ([4]; 100 µM, initial test (Table 2)): Yes | inhibition at 5 µM ([4]; 5 µM, dose-titration (Table 3)): 67% | inhibition at 10 µM [4, 7]: 73% | inhibition at 25 µM [4, 8]: 100% | inhibition at 50 µM ([4]; 50 µM, initial test (Table 2)): 100% | inhibition at 100 µM ([4]; 100 µM, initial test (Table 2)): 100% | % Parent compound remaining upon incubation ([5]; 0 h): 100% | % Parent compound remaining upon incubation ([5]; 0.25 h): 94% | % Parent compound remaining upon incubation ([5]; 0.5 h): 95% | % Parent compound remaining upon incubation ([5]; 1 h): 97% | killing at 5 µM [6, 11]: 0% | killing at 10 µM [6, 12]: 0% | killing at 25 µM [6, 13]: 0% | killing at 50 µM [6, 14]: 29% | killing at 50 µM [6, 15]: 88% | killing at 100 µM [6, 16]: 100% | killing at 100 µM [6, 17]: 100% | EC50 [6, 18]: 47 µM | EC50 [6, 19]: 49 µM | EC50 [6, 20]: 41 µM | Worm killing (female worms) ([6]; 5 µM): 0 | Worm killing (female worms) ([6]; 10 µM): 0 | Worm killing (female worms) ([6]; 25 µM): 0 | Worm killing (female worms) ([6]; 50 µM): 75 | Worm killing (female worms) ([6]; 100 µM): 100 | Worm killing (male worms) ([6]; 5 µM): 0 | Worm killing (male worms) ([6]; 10 µM): 0 | Worm killing (male worms) ([6]; 25 µM): 0 | Worm killing (male worms) ([6]; 50 µM): 100 | Worm killing (male worms) ([6]; 100 µM): 100
